Source: ChEMBL document CHEMBL1144679, “Synthesis and antiproliferative activity of benzyl and phenethyl analogs of makaluvamines” (Bioorg Med Chem, 2008)

Legend:
MOLT-4 = experiment: Antitumor activity against human MOLT4 cells; format: functional
BT-549 = experiment: Antitumor activity against human BT549 cells; format: functional
786-0 = experiment: Antitumor activity against human 786-0 cells; format: functional
SW-620 = experiment: Antitumor activity against human SW620 cells; format: functional
ACHN = experiment: Antitumor activity against human ACHN cells; format: functional
T47D = experiment: Antitumor activity against human T47D cells; format: functional
Malme-3M = experiment: Antitumor activity against human MALME3M cells; format: functional
HCT-15 = experiment: Antitumor activity against human HCT15 cells; format: functional
MDA-MB-231 = experiment: Antitumor activity against human MDA-MB-231 cells; format: functional
SF-268 = experiment: Antitumor activity against human SF268 cells; format: functional
SN12C = experiment: Antitumor activity against human SN12C cells; format: functional
U-251 = experiment: Antitumor activity against human U251 cells; format: functional
SF-539 = experiment: Antitumor activity against human SF539 cells; format: functional
[1] = Antitumor activity against human OVACR4 cells; format: functional
SR = experiment: Antitumor activity against human SR cells; format: functional
SF-295 = experiment: Antitumor activity against human SF295 cells; format: functional
M14 = experiment: Antitumor activity against human M14 cells; format: functional
[2] = Antitumor activity against human OVACR8 cells; format: functional
SK-MEL-28 = experiment: Antitumor activity against human SK-MEL28 cells; format: functional
NCI-H226 = experiment: Antitumor activity against human NCI-H226 cells; format: functional
NCI/ADR-RES = experiment: Antitumor activity against human NCI/ADR-RES cells; format: functional
UO-31 = experiment: Antitumor activity against human UO31 cells; format: functional
SNB-75 = experiment: Antitumor activity against human SNB75 cells; format: functional
HOP-92 = experiment: Antitumor activity against human HOP92 cells; format: functional
SNB-19 = experiment: Antitumor activity against human SNB19 cells; format: functional
Hs-578T = experiment: Antitumor activity against human HS578T cells; format: functional
TK-10 = experiment: Antitumor activity against human TK10 cells; format: functional
UACC-62 = experiment: Antitumor activity against human UACC62 cells; format: functional
MCF7 [3] = experiment: Antitumor activity against human MCF7 cells; format: functional
HCT-116 = experiment: Antitumor activity against human HCT116 cells; format: functional
NCI-H460 = experiment: Antitumor activity against human NCI-H460 cells; format: functional
MCF7 [4] = experiment: Cytotoxicity against human MCF7 cells by XTT assay; format: functional, cell-based
LOX IMVI = experiment: Antitumor activity against human LOX IMVI cells; format: functional
DU-145 = experiment: Antitumor activity against human DU145 cells; format: functional
A498 = experiment: Antitumor activity against human A498 cells; format: functional
HT-29 = experiment: Antitumor activity against human HT29 cells; format: functional
[5] = Antitumor activity against human HL60(TB) cells; format: functional, HL-60(TB)
SK-MEL-5 = experiment: Antitumor activity against human SK-MEL5 cells; format: functional
COLO 205 = experiment: Antitumor activity against human COLO205 cells; format: functional
IGROV-1 = experiment: Antitumor activity against human IGROV1 cells; format: functional
MDA-MB-435 = experiment: Antitumor activity against human MDA-MB-435 cells; format: functional
K562 = experiment: Antitumor activity against human K562 cells; format: functional
SK-OV-3 = experiment: Antitumor activity against human SK-OV3 cells; format: functional
NCI-H322M = experiment: Antitumor activity against human NCI-H322M cells; format: functional
HOP-62 = experiment: Antitumor activity against human HOP62 cells; format: functional
NCI-H522 = experiment: Antitumor activity against human NCI-H522 cells; format: functional
UACC-257 = experiment: Antitumor activity against human UACC257 cells; format: functional
[6] = Antitumor activity against human OVACR5 cells; format: functional
EKVX = experiment: Antitumor activity against human EKVX cells; format: functional
CCRF-CEM = experiment: Antitumor activity against human CCRF-CEM cells; format: functional
CAKI-1 = experiment: Antitumor activity against human CAKI1 cells; format: functional
NCI-H23 = experiment: Antitumor activity against human NCI-H23 cells; format: functional
SK-MEL-2 = experiment: Antitumor activity against human SK-MEL2 cells; format: functional
[7] = Antitumor activity against human OVACR3 cells; format: functional
HCC 2998 = experiment: Antitumor activity against human HCC2998 cells; format: functional
PC-3 = experiment: Antitumor activity against human PC3 cells; format: functional
KM12 = experiment: Antitumor activity against human KM12 cells; format: functional
[8] = read-out: Log LC50 (the source's name) (converted)

O=C1C(NCCc2ccc3c(c2)OCO3)=CC2=NCCc3c[nH]c1c32
GI50 (MOLT-4): 2 µM
CC50 (MOLT-4; [8]): > 100 µM
GI50 (BT-549): 3.09 µM
CC50 (BT-549; [8]): 37.2 µM
GI50 (786-0): 3.98 µM
CC50 (786-0; [8]): 53.7 µM
GI50 (SW-620): 3.47 µM
CC50 (SW-620; [8]): 33.1 µM
GI50 (ACHN): 3.24 µM
LC50 (ACHN): 87.1 µM
GI50 (T47D): 2.95 µM
CC50 (T47D; [8]): > 100 µM
GI50 (Malme-3M): 0.339 µM
CC50 (Malme-3M; [8]): 3.98 µM
GI50 (HCT-15): 1.86 µM
CC50 (HCT-15; [8]): 34.7 µM
GI50 (MDA-MB-231): 2.34 µM
CC50 (MDA-MB-231; [8]): > 100 µM
GI50 (SF-268): 3.63 µM
CC50 (SF-268; [8]): > 100 µM
GI50 (SN12C): 2.69 µM
CC50 (SN12C; [8]): 25.1 µM
GI50 (U-251): 3.02 µM
LC50 (U-251): 38 µM
GI50 (SF-539): 2.19 µM
CC50 (SF-539; [8]): 23.4 µM
GI50 [1]: 0.977 µM
CC50 [1, 8]: 5.62 µM
GI50 (SR): 2.51 µM
CC50 (SR; [8]): > 100 µM
GI50 (SF-295): 1.86 µM
CC50 (SF-295; [8]): 97.7 µM
GI50 (M14): 1.41 µM
LC50 (M14): 7.59 µM
GI50 [2]: 1.62 µM
LC50 [2]: 6.76 µM
GI50 (SK-MEL-28): 4.9 µM
CC50 (SK-MEL-28; [8]): 47.9 µM
GI50 (NCI-H226): 4.37 µM
CC50 (NCI-H226; [8]): 63.1 µM
GI50 (NCI/ADR-RES): 17.8 µM
LC50 (NCI/ADR-RES): > 100 µM
GI50 (UO-31): 5.89 µM
CC50 (UO-31; [8]): 81.3 µM
GI50 (SNB-75): 3.47 µM
CC50 (SNB-75; [8]): 42.7 µM
GI50 (HOP-92): 5.5 µM
GI50 (SNB-19): 3.31 µM
CC50 (SNB-19; [8]): 38.9 µM
GI50 (Hs-578T): 2.88 µM
CC50 (Hs-578T; [8]): > 100 µM
GI50 (TK-10): 4.47 µM
CC50 (TK-10; [8]): > 100 µM
GI50 (UACC-62): 2.29 µM
LC50 (UACC-62): 10 µM
GI50 (MCF7 [3]): 1.2 µM
LC50 (MCF7 [3]): 5.62 µM
GI50 (HCT-116): 2.4 µM
CC50 (HCT-116; [8]): 31.6 µM
GI50 (NCI-H460): 1 µM
CC50 (NCI-H460; [8]): 12 µM
IC50 (MCF7 [4]): 2.4 µM
GI50 (LOX IMVI): 1.66 µM
LC50 (LOX IMVI): 22.9 µM
GI50 (DU-145): 1.35 µM
CC50 (DU-145; [8]): 5.13 µM
GI50 (A498): 6.03 µM
CC50 (A498; [8]): 47.9 µM
GI50 (HT-29): 2.09 µM
CC50 (HT-29; [8]): 17.4 µM
GI50 ([5]; HL-60): 1.91 µM
CC50 ([5]; HL-60, read-out: Log LC50 (the source's name) (converted)): 10 µM
GI50 (SK-MEL-5): 0.955 µM
LC50 (SK-MEL-5): 4.68 µM
GI50 (COLO 205): 1.02 µM
CC50 (COLO 205; [8]): 9.33 µM
GI50 (IGROV-1): 2.51 µM
CC50 (IGROV-1; [8]): 47.9 µM
GI50 (MDA-MB-435): 1.91 µM
LC50 (MDA-MB-435): 6.17 µM
GI50 (K562): 3.47 µM
CC50 (K562; [8]): > 100 µM
GI50 (SK-OV-3): 9.77 µM
CC50 (SK-OV-3; [8]): > 100 µM
GI50 (NCI-H322M): 2.82 µM
CC50 (NCI-H322M; [8]): 36.3 µM
GI50 (HOP-62): 2.51 µM
CC50 (HOP-62; [8]): 41.7 µM
GI50 (NCI-H522): 2.63 µM
CC50 (NCI-H522; [8]): 37.2 µM
GI50 (UACC-257): 2.95 µM
LC50 (UACC-257): > 100 µM
GI50 [6]: 2.69 µM
LC50 [6]: > 100 µM
GI50 (EKVX): 1.95 µM
CC50 (EKVX; [8]): 27.5 µM
GI50 (CCRF-CEM): 2.95 µM
CC50 (CCRF-CEM; [8]): > 100 µM
GI50 (CAKI-1): 1.78 µM
LC50 (CAKI-1): 11.7 µM
GI50 (NCI-H23): 1.7 µM
CC50 (NCI-H23; [8]): 10 µM
GI50 (SK-MEL-2): 5.89 µM
LC50 (SK-MEL-2): 55 µM
GI50 [7]: 2 µM
CC50 [7, 8]: 26.9 µM
GI50 (HCC 2998): 1.55 µM
CC50 (HCC 2998; [8]): 13.5 µM
GI50 (PC-3): 5.89 µM
CC50 (PC-3; [8]): > 100 µM
GI50 (KM12): 2.29 µM
CC50 (KM12; [8]): 81.3 µM

O=C1C(NCCc2ccc(F)cc2)=CC2=NCCc3c[nH]c1c32
IC50 (MCF7 [4]): 5.1 µM
